Laboratory results as given in ChEMBL document CHEMBL1144356 (J Med Chem, 2005).

Legend:
[1] = system: Cricetinae gen. sp.; test: Effect at an oral dose of 0.1 mg/kg/day for 14 days on serum triglyceride level of hamster; format: functional, Cricetulus griseus
[2] = system: Canis familiaris; test: Effect on cholesterol lowering in male Beagle dog at an oral dose of 0.3 mkd for 10 days with 4 mkd simavastatin
[3] = system: Cricetinae gen. sp.; test: Effect at an oral dose of 0.3 mg/kg/day for 14 days on serum cholesterol level of hamster; format: functional, Cricetulus griseus
[4] = system: Canis familiaris; test: Effect on cholesterol lowering in male Beagle dog at an oral dose of 0.3 mkd for 3 days
[5] = system: Cricetinae gen. sp.; test: Effect at an oral dose of 1 mg/kg/day for 14 days on serum triglyceride level of hamster; format: functional, Cricetulus griseus
[6] = system: Canis familiaris; test: Effect on cholesterol lowering in male Beagle dog at an oral dose of 0.3 mkd for 10 days
[7] = system: Canis familiaris; test: Effect on cholesterol lowering in male Beagle dog at an oral dose of 0.1 mkd for 3 days
[8] = system: Canis familiaris; test: Effect on cholesterol lowering in male Beagle dog at an oral dose of 0.3 mkd for 7 days with 4 mkd simavastatin
[9] = system: Canis familiaris; test: Effect on cholesterol lowering in male Beagle dog at an oral dose of 0.01 mkd for 15 days
[10] = target: T1, Peroxisome proliferator-activated receptor gamma (Homo sapiens, UniProt P37231); test: In vitro binding affinity for PPAR-gamma
T1 sequence (P37231 whole entry): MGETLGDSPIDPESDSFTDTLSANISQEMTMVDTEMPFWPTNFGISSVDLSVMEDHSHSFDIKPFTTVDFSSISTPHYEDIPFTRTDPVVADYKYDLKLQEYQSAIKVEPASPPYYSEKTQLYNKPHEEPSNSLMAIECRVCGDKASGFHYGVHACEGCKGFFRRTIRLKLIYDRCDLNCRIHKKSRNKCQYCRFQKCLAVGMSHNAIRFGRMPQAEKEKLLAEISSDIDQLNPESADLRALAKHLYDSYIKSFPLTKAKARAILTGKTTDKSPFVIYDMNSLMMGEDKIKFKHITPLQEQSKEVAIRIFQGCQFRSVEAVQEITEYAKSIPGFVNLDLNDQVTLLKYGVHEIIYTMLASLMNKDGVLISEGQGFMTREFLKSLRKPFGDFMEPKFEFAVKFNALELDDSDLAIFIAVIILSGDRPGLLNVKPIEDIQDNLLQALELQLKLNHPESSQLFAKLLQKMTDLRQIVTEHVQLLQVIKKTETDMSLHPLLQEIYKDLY

[11] = system: Canis familiaris; test: Effect on cholesterol lowering in male Beagle dog at an oral dose of 0.03 mkd for 7 days
[12] = system: Canis familiaris; test: Effect on cholesterol lowering in male Beagle dog at an oral dose of 0.1 mkd for 7 days
[13] = system: Canis familiaris; test: Effect on cholesterol lowering in male Beagle dog at an oral dose of 0.3 mkd for 3 days with 4 mkd simavastatin

IC50 [10]: > 15 µM
Structure (SMILES): CC[C@@]1(C(=O)O)Cc2cc(OCCCOc3ccc(OC(F)(F)F)cc3Cl)ccc2O1
TG [1]: -11.78% | TC [2]: -36.9% | TC [3]: -30% | TC [4]: -10.1% | TG [5]: -43.65% | TC [6]: -20.5% | TC [7]: -7.5% | TC [8]: -27.8% | TC [9]: -21% | TC [11]: -11.2% | TC [12]: -18% | TC [13]: -14.2%
